Test results from patent US9770429B2, “4-methylsulfonyl-2-butenenitrile and its pharmaceutical use” (OLATEC THERAPEUTICS LLC, priority 2013, dated 2017).

Tested on: arachidonic acid-induced ear swelling
Test: topical arachidonic acid-induced ear swelling model in mice
Format: in vivo
Conditions: for % Inhibition of ear swelling: male ICR mice, topical application 30 min before and 15 min after arachidonic acid, measured at 90 minutes after arachidonic acid, indomethacin 14 mM (0.1 mg/20 μL), test compound 375 mM (1.1 mg/20 μL), relative to vehicle
Description: 4-Methylsulfonyl-2-butenenitrile, prepared from Example 1, was used in this experiment. The test compound, indomethacin (positive control), and vehicle were evaluated for anti-inflammatory activity in a topical arachidonic acid-induced ear swelling model in mice. Male ICR mice weighing 22±2 g were used and randomly divided; the test compound and vehicle control had 10 mice, and indomethacin had 5 mice. Arachidonic Acid (0.5 mg in 20 μl of acetone:ethanol/1:1) was applied topically to the anterior and posterior surfaces of the right ear of each mouse. Test substances and vehicle, as listed in Table 2 were similarly applied 30 min before and 15 min after arachidonic acid application. The thickness of the right ear and the left ear was measured and the difference calculated as an indication of the inflammation in the right ear. Ear swelling was measured by a Dyer model micrometer gauge at 60 and 90 minutes after arachidonic acid application as an index of inflammation. Percent inhibition was calculated according to the formula: Ic−It/Ic×100, where Ic and It refers to increase of ear thickness (mm) in control and treated mice, respectively. ANOVA and Dunnett's test were employed to ascertain significant difference between vehicle control and treated groups. Significance is set at P<0.05 level.

| SMILES | anti-inflammatory activity in the mouse ear swelling model (in words) (applied topically, inflammation induced by arachidonic acid) | % Inhibition of ear swelling [%] |
| --- | --- | --- |
| CS(=O)(=O)C/C=C/C#N [4-methylsulfonyl-2-butenenitrile] | anti-inflammatory | 22 |
| COc1ccc2c(c1)c(CC(=O)O)c(C)n2C(=O)c1ccc(Cl)cc1 [Indomethacin, indomethacin, reference compound] | – | 58 |
